These results are taken from patent US9550796B2, “Pyrrolopyrrolone derivatives and their use as BET inhibitors” (NOVARTIS AG, priority 2013, dated 2017).

The IC50 is the concentration needed to halve the response being measured. The term GI50 denotes the concentration giving 50% growth inhibition. A low value points to more potent growth inhibition.

One assay addresses BRD4 (Homo sapiens (Human), UniProt O60885). The experiment in a line: TR-FRET in-vitro binding assay for BRD4. The note with it: 45 nM His-Brd4(44-477), acetyl-histone H4 (AcK 5, 8, 12, 16) peptide. As for the experimental part:
(§1) TR-FRET In-Vitro Binding Assays for BRD2, BRD3, and BRD4: All assays were performed in 384-well microtiter plates. […] Liquid handling and incubation steps were done on an Innovadyne Nanodrop Express equipped with a robotic arm (Thermo CatX, Perkin Elmer/Caliper Twister II) and an incubator (Liconic STX40, Thermo Cytomat 2C450). The assay plates were prepared by addition of 50 nl per well of compound solution in 90% DMSO HummingBird nanodispenser (Zinsser Analytic). […] Reactions were incubated at 30° C. for 35 minutes. […] After 35 minutes incubation at 30° C., plates were measured in a Perkin Elmer EnVision multilabel reader. […] The stock solutions were stored at […] if not used immediately. For the test procedure the vials were defrosted and identified by a scanner whereby a working sheet was generated that guided the subsequent working steps. Compound dilutions were made in 96 well plates. This format enabled the assay of maximally […] at 8 concentrations (single points) including 4 reference compounds, if desired (known BET inhibitors from the prior art, for this and other assays of the type disclosed herein). The dilution protocol included the production of “pre-dilution plates”, “master plates” and “assay plates”. Polypropylene 96-well plates were used as pre-dilution plates. […] All dilution steps were done on a HamiltonSTAR robot. […] Identical “assay plates” were then prepared by pipetting 50 nL each of compound dilutions of the “master plates” into 384-well “assay plates” by means of a HummingBird 384-channel dispenser. These plates were used directly for the assay which was performed in a total volume of 13.55 μL.
(Time-resolved FRET reads energy transfer from a long-lived donor to a nearby acceptor.)

The next assay relates to THP-1. The assay is described as follows: Cell growth inhibition assay (CellTiter-Glo), THP-1. Format: cell-based, human. The note with it: THP-1 cells, 4 days; for GI50: Homo sapiens, 96 h, half-maximal growth inhibition; for THP-1 TGI: total growth inhibition. As for the experimental part: (§2) Cell Growth Inhibition Assay
(§3) The human leukemia cell lines MV-4-11, THP-1 and K-562 were employed to characterize the effect of BET inhibitors on cellular proliferation and viability. Cells were obtained from the American Type Culture Collection (ATCC) and cultured at 37° C. in a humidified 5% CO2 incubator in the following media: MV-4-11: DMEM high glucose (Animed #1-26F01-I), 10% FCS (Animed #2-01F26-I), 4 mM L-Glutamine (Animed #5-10K50), 1 mM Sodium Pyruvate (Animed # G03625P), 1× Penicillin-Streptomycin (Animed # F12478P); K-562: Iscove's MEM (Animed #1-28F16-I), 10% FCS (Animed #2-01F26-I), 4 mM L-Glutamine (Animed #5-10K50), 1× Penicillin-Streptomycin (Animed # F12478P); THP-1: RPMI-1640 (Animed #1-41F01-I), 10% FCS (Animed #2-01F26-I), 2 mM L-Glutamine (Animed #5-10K50), 10 mM HEPES (Animed #5-31F100), 1 mM Sodium Pyruvate (Animed # G03625P), 1× Penicillin-Streptomycin (Animed # F12478P). The AML lines MV-4-11 and THP-1 are very sensitive to BET inhibitors and show massive cell death upon BET inhibition (Zuber et al., Nature, 478 (2011), 524-8). Compound-mediated suppression of cell proliferation/viability was assessed by quantification of cellular ATP levels using the CellTiter-Glo (CTG) reagent (Promega). Briefly, cells were seeded in 20 μl fresh medium into 384-well plates, followed by addition of 5 μL medium containing compound dilutions at 5-fold their final intended concentration. Dose-response effects were assessed by 3-fold serial dilutions of the test compound, starting at 10 μM. Following incubation of the cells for 4 days at 37° C. and 5% CO2, the effect of inhibitors on cell viability was quantified following addition of 20 μl CTG and luminescence quantification (integration time: 100 ms) as per vendor manual, using a correspondingly equipped Tecan M200 multi-mode platereader (TECAN, Switzerland). For data analysis, the assay background value determined in wells containing medium, but no cells, was subtracted from all data points. To enable differentiation of cytotoxic from cytostatic compounds, the number of viable cells is assessed relative to that observed at the time of compound addition using a separate cell plate (day 0). The effect of a particular test compound concentration on cell proliferation/viability is expressed as percentage of the background- and day 0-corrected luminescence reading obtained for cells treated with vehicle only (DMSO, 0.1% final concentration), which is set as 100%, whereas that luminescence reading for wells containing medium is set as −100%. Compound concentrations leading to half-maximal (IC50) and total growth inhibition (TGI) were determined using standard four parameter curve fitting.

A further assay deals with MV-4-11. The experiment in a line: Cell growth inhibition assay (CellTiter-Glo), MV-4-11. Format: cell-based, human. The note with it: MV-4-11 cells, 4 days; for GI50: Homo sapiens, MV4-11, 96 h, half-maximal growth inhibition; for MV-4-11 TGI: total growth inhibition. The protocol:
as §2, §3
In general terms: ATP-based viability assays read luminescence as a measure of living cells.

For another assay, the system named is K-562. The assay is described as follows: Cell growth inhibition assay (CellTiter-Glo), K-562. Format: cell-based, human. The settings on record: K-562 cells, 4 days; for GI50: Homo sapiens, K562, 96 h, half-maximal growth inhibition; for K-562 TGI: total growth inhibition. As for the experimental part:
as §2, §3

A further assay concerns the target CREBBP (Homo sapiens (Human), UniProt Q92793). The assay is described as follows: AlphaScreen in-vitro binding assay for CREBBP. The settings on record: 324 nM His-CREBBP (1081-1197), acetyl-histone H4 (AcK 5, 8, 12) peptide. The protocol:
AlphaScreen In-Vitro Binding Assay for CREBBP
In order to assess bromodomain selectivity, we set up a binding assay using the bromodomain encoded by the CREBBP gene. […] The assay was started by stepwise addition of 4.5 μL per well of bromo domain protein (50 mM HEPES, pH 7.5, 0.005% Tween20, 0.02% BSA, 150 mM NaCl, 324 nM His-CREBBP (1081-1197) (custom production at Viva Biotech Ltd.)) and 4.5 μL per well of peptide solution (50 mM HEPES, pH 7.5, 0.005% Tween20, 0.02% BSA, 150 mM NaCl, 120 nM acetyl-histone H4 (AcK 5, 8, 12) (Biosyntan GmbH)). Reactions were incubated at 30° C. for 35 minutes. Subsequently 4.5 μL per well detection mix (50 mM HEPES, pH 7.5, 0.005% Tween20, 0.02% BSA, 150 mM NaCl, 45 μg/ml Ni-chelate acceptor beads, 45 μg/mL streptavidin-donor beads) (Perkin Elmer)) were added. After 60 minutes incubation at room temperature, plates were measured in a Perkin Elmer EnVision multilabel reader. IC50 values were determined from percent inhibition values at different compound concentrations by non-linear regression analysis.
Test compounds were dissolved in DMSO (10 mM) and transferred into 1.4 mL flat bottom or V-shaped Matrix tubes carrying a unique 2D matrix. The stock solutions were stored at […] if not used immediately. For the test procedure the vials were defrosted and identified by a scanner whereby a working sheet was generated that guided the subsequent working steps. Compound dilutions were made in 96 well plates. This format enabled the assay of maximally […] at 8 concentrations (single points) including 4 reference compounds, if desired (known BET inhibitors from the prior art, for this and other assays of the type disclosed herein). The dilution protocol included the production of “pre-dilution plates”, “master plates” and “assay plates”.
Polypropylene 96-well plates were used as pre-dilution plates. A total of 4 pre-dilution plates were prepared including 10 test compounds each on the plate positions A1-A10, one standard compound at A11 and one DMSO control at […]. All dilution steps were done on a HamiltonSTAR robot.
30 μL of individual compound dilutions including standard compound and controls of the 4 “pre-dilution plates” were transferred into a 384-well “master plate” including the following concentrations 10000, […], 1000, 300, 100, 30, 10 and 3 μM, respectively in 90% of DMSO.
Identical “assay plates” were then prepared by pipetting 50 nL each of compound dilutions of the “master plates” into 384-well “assay plates” by means of a HummingBird 384-channel dispenser. These plates were used directly for the assay which was performed in a total volume of 13.55 μL.
On the technique in general: In Alpha technology, singlet oxygen from a donor bead excites a nearby acceptor bead.

A further assay has as its target BRD3 (Homo sapiens (Human), UniProt Q15059). The assay is described as follows: TR-FRET in-vitro binding assay for BRD3. The note with it: 45 nM His-Brd3(20-477), acetyl-histone H4 (AcK 5, 8, 12, 16) peptide. The protocol: as §1

BRD3, sequence (Q15059 20-477): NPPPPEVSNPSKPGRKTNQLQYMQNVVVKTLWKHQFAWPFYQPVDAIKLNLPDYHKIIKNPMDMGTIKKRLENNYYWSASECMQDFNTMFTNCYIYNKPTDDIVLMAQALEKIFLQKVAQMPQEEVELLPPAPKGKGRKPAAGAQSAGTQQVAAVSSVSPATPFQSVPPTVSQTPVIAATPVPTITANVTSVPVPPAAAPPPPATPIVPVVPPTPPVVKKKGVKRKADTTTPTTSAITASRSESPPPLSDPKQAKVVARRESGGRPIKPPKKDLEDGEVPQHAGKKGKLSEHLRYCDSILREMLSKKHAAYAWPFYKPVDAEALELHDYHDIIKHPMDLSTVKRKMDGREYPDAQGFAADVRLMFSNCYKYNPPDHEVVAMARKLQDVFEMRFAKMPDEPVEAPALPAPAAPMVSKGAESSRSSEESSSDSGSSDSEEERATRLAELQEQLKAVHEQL
CREBBP, sequence (Q92793 1081-1197): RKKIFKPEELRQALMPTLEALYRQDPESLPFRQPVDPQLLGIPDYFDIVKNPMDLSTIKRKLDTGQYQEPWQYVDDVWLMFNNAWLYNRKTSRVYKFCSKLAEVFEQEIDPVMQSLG

As to `Cc1cc2c(n1C)C(c1ccc(Cl)cc1)N(c1cc(Cl)c(=O)n(C)c1)C2=O` (centres unmarked) [Example 74, 5-(5-chloro-1-methyl-6-oxo-1,6-dihydropyridin-3-yl)-6-(4-chlorophenyl)-1,2-dimethyl-5,6-dihydropyrrolo[3,4-b]pyrrol-4(1H)-one], at BRD4, the IC50 is 23 nM. Also, in the assay with THP-1, the GI50 was 92.7 nM and the “THP-1 TGI” value stood at 171.5 nM. For the same compound, in the assay with MV-4-11, halving of growth (GI50) required 90.1 nM and the “MV-4-11 TGI” value was 142 nM. In the assay with K-562, growth was halved (GI50) at 273 nM and the “K-562 TGI” value is over 10000 nM.

In the case of `CC(=O)Nc1cn(C)c2c1C(=O)N(c1cc(C)c3nnn(C)c3c1)C2c1ccc(Cl)cc1` (centres unmarked) [Example 113, N-(6-(4-chlorophenyl)-5-(1,4-dimethyl-1H-benzo[d][1,2,3]triazol-6-yl)-1-methyl-4-oxo-1,4,5,6-tetrahydropyrrolo[3,4-b]pyrrol-3-yl)acetamide], the IC50 at CREBBP stood at 1600 nM; on BRD4, 13 nM; on BRD3 it was 15 nM. For the same compound, the GI50 with THP-1 is 12.9 nM; in the assay with MV-4-11, 13.6 nM; in the assay on K-562 it was 72 nM. For the same compound, the “THP-1 TGI” value in the assay with THP-1 was found to be 30.35 nM. The “MV-4-11 TGI” value in the assay with MV-4-11 worked out at 27.25 nM. Also, the “K-562 TGI” value in the assay on K-562 is over 10000 nM.

Compound `Cc1cc(N2C(=O)c3c(C4CC4)cn(C4COC4)c3C2c2ccc(Cl)cc2)cn2c(C)nnc12` (centres unmarked) [Example 18, 6-(4-chlorophenyl)-3-cyclopropyl-5-(3,8-dimethyl-[1,2,4]triazolo[4,3-a]pyridin-6-yl)-1-(oxetan-3-yl)-5,6-dihydropyrrolo[3,4-b]pyrrol-4(1H)-one] gave an IC50 on BRD4 of 12 nM. In the assay on THP-1, the GI50 was determined as 4.63 nM and the “THP-1 TGI” value was 13.35 nM. In the assay on MV-4-11, it took 2.86 nM to inhibit growth by half (GI50) and the “MV-4-11 TGI” value was found to be 8.13 nM. Moreover, in the assay with K-562, it took 16.4 nM to inhibit growth by half (GI50) and the “K-562 TGI” value was over 10000 nM.

Compound `Cn1ccc2c1C(c1ccc(Cl)cc1)N(c1cc(Cl)c(=O)n(C)c1)C2=O` (centres unmarked) [Example 76, 5-(5-chloro-1-methyl-6-oxo-1,6-dihydropyridin-3-yl)-6-(4-chlorophenyl)-1-methyl-5,6-dihydropyrrolo[3,4-b]pyrrol-4(1H)-one] displayed an IC50 on BRD4 of 37 nM. Besides, in the assay with THP-1, the GI50 was 118 nM and the “THP-1 TGI” value was found to be 238 nM. Moreover, in the assay on MV-4-11, the GI50 is 108 nM and the “MV-4-11 TGI” value is 178 nM. Moreover, in the assay with K-562, halving of growth (GI50) required 368 nM and the “K-562 TGI” value was over 10000 nM.

Compound `Cc1cc(N2C(=O)c3c(C4CC4)cn(C)c3[C@H]2c2ccc(Cl)cc2)cn2c(C)nnc12` [Example 36, (R)-6-(4-chlorophenyl)-3-cyclopropyl-5-(3,8-dimethyl-[1,2,4]triazolo[4,3-a]pyridin-6-yl)-1-methyl-5,6-dihydropyrrolo[3,4-b]pyrrol-4(1H)-one] gave an IC50 at CREBBP of 4100 nM. In addition, in the assay with THP-1, the GI50 stood at 3.36 nM and the “THP-1 TGI” value is 10.91 nM. In the assay with MV-4-11, the GI50 worked out at 2.15 nM and the “MV-4-11 TGI” value was determined as 6.22 nM. Further, in the assay on K-562, the GI50 came out at 17.9 nM and the “K-562 TGI” value was over 10000 nM. This compound also showed an IC50 at BRD3 of 15 nM.

At CREBBP, `Cc1cc(N2C(=O)c3c(C4CC4)cn(C)c3C2c2ccc(Cl)cc2)cn2c(C)nnc12` (centres unmarked) [Example 35, 6-(4-chlorophenyl)-3-cyclopropyl-5-(3,8-dimethyl-[1,2,4]triazolo[4,3-a]pyridin-6-yl)-1-methyl-5,6-dihydropyrrolo[3,4-b]pyrrol-4(1H)-one] gave an IC50 of 6100 nM. Moreover, in the assay on THP-1, growth was halved (GI50) at 8.94 nM and the “THP-1 TGI” value stood at 17.85 nM. Moreover, in the assay with MV-4-11, the GI50 was 4.08 nM and the “MV-4-11 TGI” value stood at 8.67 nM. In addition, in the assay with K-562, halving of growth (GI50) required 45.9 nM and the “K-562 TGI” value is over 10000 nM. The IC50 at BRD3 stood at 15 nM.

For the compound `CC(=O)Nc1cn(C)c2c1C(=O)N(c1cc(C)c3nnc(C)n3c1)[C@@H]2c1ccc(Cl)cc1` [Example 136, (R)—N-(6-(4-chlorophenyl)-5-(3,8-dimethyl-[1,2,4]triazolo[4,3-a]pyridin-6-yl)-1-methyl-4-oxo-1,4,5,6-tetrahydropyrrolo[3,4-b]pyrrol-3-yl)acetamide], the IC50 at CREBBP turned out to be 1400 nM. Besides, in the assay on THP-1, the GI50 was found to be 33.7 nM and the “THP-1 TGI” value came to 79.2 nM. Further, in the assay on MV-4-11, growth was halved (GI50) at 19.8 nM and the “MV-4-11 TGI” value was determined as 39.5 nM. Moreover, in the assay with K-562, the GI50 was found to be 119 nM and the “K-562 TGI” value was over 10000 nM.
